Experimental data taken from publication PMC8165695 (Journal of Medicinal Chemistry, 2021).
Where a SMILES comes first, the peptide text is derived from it. [ ]: non-standard residue; d: D form. The star is where a group is joined. Sta = CC(C)C[C@H](N)[C@@H](O)CC(=O)O; Isovaleryl = CC(C)CC(=O)*

Experiments:
[1] = system: C. neoformans strains H99 and may1Δ; experiment: Yeast culture activity assay; format: cell-based, Cryptococcus neoformans; details: for terminal culture density of yeast: 48 h, 0.1, 1.0, 10 or 50 μM compound
[2] = target: HIV-1 Pr drug resistance-associated mutants; details: cited from earlier work
HIV-1 Pr wild-type = details: cited from earlier work
HepG2 = experiment: Cytotoxicity, CellTiter-Glo 2.0 Cell Viability Assay; format: cell-based, human; details: HepG2 cell line; comparators darunavir, amprenavir, indinavir (ref 40)
May1 = target: T1, May1 (Cryptococcus neoformans, UniProt J9VS02); experiment: May1 Ki determination, fluorometric assay with IQ-2 substrate; format: biochemical
T1 sequence (J9VS02 80-434 limits assumed): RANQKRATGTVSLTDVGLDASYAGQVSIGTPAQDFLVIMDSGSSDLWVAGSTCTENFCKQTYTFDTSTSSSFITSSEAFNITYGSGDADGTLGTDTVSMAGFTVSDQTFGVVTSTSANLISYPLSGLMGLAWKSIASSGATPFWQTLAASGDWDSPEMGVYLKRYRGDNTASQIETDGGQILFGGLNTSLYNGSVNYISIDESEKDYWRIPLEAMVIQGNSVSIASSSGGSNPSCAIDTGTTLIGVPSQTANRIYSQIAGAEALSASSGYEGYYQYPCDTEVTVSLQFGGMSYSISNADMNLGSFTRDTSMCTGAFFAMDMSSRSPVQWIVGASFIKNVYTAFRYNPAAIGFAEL

Which “terminal culture density of yeast” value ([1]; H99, YNB minimal medium) does the source give for `CC(C)[C@H](NC(=O)[C@H](CCC(=O)O)NC(=O)C[C@H](O)[C@H](Cc1ccccc1)NC(=O)OCc1ccccc1)C(N)=O` [Compound 3a, (S)-5-(((S)-1-amino-3-methyl-1-oxobutan-2-yl)amino)-4-((3S,4S)-4-(((benzyloxy)carbonyl)amino)-3-hydroxy-5-phenylpentanamido)-5-oxopentanoic acid] here?
Its value is “dose-dependent reductions in terminal culture density”.

With `CCCC[C@H](NC(=O)[C@H](CCC(=O)O)NC(=O)C[C@H](O)[C@H](Cc1ccccc1)NC(=O)OCc1ccccc1)C(N)=O` [Compound 4a, (S)-5-(((S)-1-amino-1-oxohexan-2-yl)amino)-4-((3S,4S)-4-(((benzyloxy)carbonyl)amino)-3-hydroxy-5-phenylpentanamido)-5-oxopentanoic acid] as the compound, how does the “terminal culture density of yeast” value ([1]; H99, YNB minimal medium) read?
The value was “dose-dependent reductions in terminal culture density”.

Which results are given for `NC(=O)[C@H](CCc1ccccc1)NC(=O)[C@H](CCC(=O)O)NC(=O)C[C@H](O)[C@H](Cc1ccccc1)NC(=O)OCc1ccccc1` [Compound 13a, (S)-5-(((S)-1-amino-1-oxo-4-phenylbutan-2-yl)amino)-4-((3S,4S)-4-(((benzyloxy)carbonyl)amino)-3-hydroxy-5-phenylpentanamido)-5-oxopentanoic acid]?
Ki for three drug resistance-associated HIV-1 Pr mutants [2]: 24 to 320 pM; inhibition of wild-type HIV-1 Pr (in words) (HIV-1 Pr wild-type): potent, subnanomolar inhibitor; cytotoxicity compared with clinically used protease inhibitors (HepG2): on par with or lower than that of clinically used protease inhibitors; terminal culture density of yeast at 50 μM ([1]; H99, YNB minimal medium, 48 h, 50 μM): nearly phenocopying the may1Δ mutant; terminal culture density of yeast ([1]; H99, YNB minimal medium): dose-dependent reductions in terminal culture density; culture density during logarithmic phase growth ([1]; H99, unbuffered YNB, 50 μM): achieved similar densities to 1b- or DMSO-treated controls during the logarithmic phase growth; saturation density phenotype in buffered medium ([1]; YNB with 50 mM MES, pH 6.5, 50 μM): eliminated the saturation density phenotype; culture density of may1Δ yeast ([1]; may1Δ strain, unbuffered YNB, 50 μM): did not further reduce culture densities during either the logarithmic or the stationary phase

Which Ki (May1) does the source give for `CC(C)CC(=O)N[C@H](C(=O)N[C@H](C(=O)N[C@@H](CC(C)C)[C@@H](O)CC(=O)N[C@@H](C)C(=O)N[C@@H](CC(C)C)[C@@H](O)CC(=O)O)C(C)C)C(C)C` [PepA, pepstatin A] (Isovaleryl-VV[Sta]A[Sta]-OH) here?
Its Ki is 1.3 ± 0.1 nM.

For `CC(=O)N[C@H](C(=O)N[C@H](C(=O)N[C@@H](CC(C)C)[C@@H](O)CC(=O)N[C@@H](C)C(=O)N[C@@H](CC(C)C)[C@@H](O)CC(=O)O)C(C)C)C(C)C` [acetyl pepstatin] (Ac-VV[Sta]A[Sta]-OH), which Ki (May1) is on record?
The Ki was 3.3 ± 0.1 nM.
